From US10004701B2, “Methods and compositions for treating infection” (UNIVERSITY OF ROCHESTER, priority 2012, dated 2018)
Structures can show the parent of a compound that is named as a salt. Where two headings read alike, the source gives them in different places.

Tests used:
Experiment in all cases: AK assay 384-well format, Prestwick library screening
E. faecium = assay type: cell-based, Enterococcus faecium; settings: Enterococcus faecium, 3 h, 50 μM final drug concentration
[1] = tested on: S. aureus strain USA300-0114; assay type: cell-based, Staphylococcus aureus; settings: Staphylococcus aureus, USA300, 3 h, 50 μM final drug concentration
K. pneumoniae = assay type: cell-based, Klebsiella pneumoniae; settings: Klebsiella pneumoniae, 3 h, 50 μM final drug concentration
[2] = tested on: A. baumannii strain 98-37-09; assay type: cell-based, Acinetobacter baumannii; settings: Acinetobacter baumannii, 983709, 3 h, 50 μM final drug concentration
P. aeruginosa = assay type: cell-based, Pseudomonas aeruginosa; settings: Pseudomonas aeruginosa, 3 h, 50 μM final drug concentration
E. cloacae = assay type: cell-based, Enterobacter cloacae; settings: Enterobacter cloacae, 3 h, 50 μM final drug concentration
E. coli = assay type: cell-based, Escherichia coli; settings: Escherichia coli, 3 h, 50 μM final drug concentration
[3] = cutoff for positive-scoring molecules 3-fold increase, read-out: AK-based Prestwick Library Screening Results, E. faecium (fold increase in extracellular AK activity)
[4] = cutoff for positive-scoring molecules 3-fold increase, read-out: AK-based Prestwick Library Screening Results, S. aureus (fold increase in extracellular AK activity)
[5] = cutoff for positive-scoring molecules 3-fold increase, read-out: AK-based Prestwick Library Screening Results, K. pneumoniae (fold increase in extracellular AK activity)
[6] = cutoff for positive-scoring molecules 3-fold increase, read-out: AK-based Prestwick Library Screening Results, A. baumannii (fold increase in extracellular AK activity)
[7] = cutoff for positive-scoring molecules 3-fold increase, read-out: AK-based Prestwick Library Screening Results, P. aeruginosa (fold increase in extracellular AK activity)
[8] = cutoff for positive-scoring molecules 3-fold increase, read-out: AK-based Prestwick Library Screening Results, E. cloacae (fold increase in extracellular AK activity)
[9] = cutoff for positive-scoring molecules 3-fold increase, read-out: AK-based Prestwick Library Screening Results, E. coli (fold increase in extracellular AK activity)
[10] = 384-well format, cutoff for positive-scoring molecules 3-fold increase, read-out: AK-based Prestwick Library Screening Results, E. faecium (increase in extracellular AK activity)
[11] = 384-well format, cutoff for positive-scoring molecules 3-fold increase, read-out: AK-based Prestwick Library Screening Results, S. aureus (increase in extracellular AK activity)
[12] = 384-well format, cutoff for positive-scoring molecules 3-fold increase, read-out: AK-based Prestwick Library Screening Results, K. pneumoniae (increase in extracellular AK activity)
[13] = 384-well format, cutoff for positive-scoring molecules 3-fold increase, read-out: AK-based Prestwick Library Screening Results, A. baumannii (increase in extracellular AK activity)
[14] = 384-well format, cutoff for positive-scoring molecules 3-fold increase, read-out: AK-based Prestwick Library Screening Results, P. aeruginosa (increase in extracellular AK activity)
[15] = 384-well format, cutoff for positive-scoring molecules 3-fold increase, read-out: AK-based Prestwick Library Screening Results, E. cloacae (increase in extracellular AK activity)
[16] = 384-well format, cutoff for positive-scoring molecules 3-fold increase, read-out: AK-based Prestwick Library Screening Results, E. coli (increase in extracellular AK activity)

Compound: COc1cc(CNC(=O)CCCC/C=C/C(C)C)ccc1O [Capsaicin]
- fold induction at 50 µM (E. faecium; [3]): 1.1
- fold induction at 50 µM [1, 4]: 1.2
- fold induction at 50 µM (K. pneumoniae; [5]): 1
- fold induction at 50 µM [2, 6]: 1.2
- fold induction at 50 µM (P. aeruginosa; [7]): 1.1
- fold induction at 50 µM (E. cloacae; [8]): 1.5
- fold induction at 50 µM (E. coli; [9]): 1.3

Compound: CCOC(=O)Nc1ccc2c(c1)N(C(=O)CCN1CCOCC1)c1ccccc1S2 [Moricizine hydrochloride]
- fold induction at 50 µM (E. faecium; [3]): 1
- fold induction at 50 µM [1, 4]: 0.6
- fold induction at 50 µM (K. pneumoniae; [5]): 0.6
- fold induction at 50 µM [2, 6]: 0.6
- fold induction at 50 µM (P. aeruginosa; [7]): 0.6
- fold induction at 50 µM (E. cloacae; [8]): 0.7
- fold induction at 50 µM (E. coli; [9]): 0.6

Compound: CC(=O)O[C@H]1C[C@@H]2CC[C@@H]3[C@H](CC[C@@]4(C)[C@H]3C[C@H]([N+]3(C)CCCCC3)[C@@H]4OC(C)=O)[C@@]2(C)C[C@@H]1[N+]1(C)CCCCC1 [Pancuronium bromide]
- fold induction at 50 µM (E. faecium; planktonic E. faecium, positive cutoff 3-fold increase, read-out: AK-based Prestwick library screening result, E. faecium (fold increase in extracellular AK activity)): 1
- fold induction at 50 µM ([1]; planktonic S. aureus, positive cutoff 3-fold increase, read-out: AK-based Prestwick library screening result, S. aureus (fold increase in extracellular AK activity)): 1.1
- fold induction at 50 µM (K. pneumoniae; planktonic K. pneumoniae, positive cutoff 3-fold increase, read-out: AK-based Prestwick library screening result, K. pneumoniae (fold increase in extracellular AK activity)): 1
- fold induction at 50 µM ([2]; planktonic A. baumannii, positive cutoff 3-fold increase, read-out: AK-based Prestwick library screening result, A. baumannii (fold increase in extracellular AK activity)): 1.1
- fold induction at 50 µM (P. aeruginosa; planktonic P. aeruginosa, positive cutoff 3-fold increase, read-out: AK-based Prestwick library screening result, P. aeruginosa (fold increase in extracellular AK activity)): 0.9
- fold induction at 50 µM (E. cloacae; planktonic E. cloacae, positive cutoff 3-fold increase, read-out: AK-based Prestwick library screening result, E. cloacae (fold increase in extracellular AK activity)): 1.6
- fold induction at 50 µM (E. coli; planktonic E. coli, […], read-out: AK-based Prestwick library screening result, E. coli (fold increase in extracellular AK activity)): 1.1

Compound: CC(C)[N+](C)(CCOC(=O)C1c2ccccc2Oc2ccccc21)C(C)C [Propantheline bromide]
- fold induction at 50 µM (E. faecium; planktonic, cutoff for positive-scoring molecules 3-fold increase, read-out: AK-based Prestwick Library Screening Results, E. faecium (fold increase in extracellular AK activity)): 0.8
- fold induction at 50 µM ([1]; planktonic, cutoff for positive-scoring molecules 3-fold increase, read-out: AK-based Prestwick Library Screening Results, S. aureus (fold increase in extracellular AK activity)): 0.8
- fold induction at 50 µM (K. pneumoniae; planktonic, cutoff for positive-scoring molecules 3-fold increase, read-out: AK-based Prestwick Library Screening Results, K. pneumoniae (fold increase in extracellular AK activity)): 0.8
- fold induction at 50 µM ([2]; planktonic, cutoff for positive-scoring molecules 3-fold increase, read-out: AK-based Prestwick Library Screening Results, A. baumannii (fold increase in extracellular AK activity)): 1
- fold induction at 50 µM (P. aeruginosa; planktonic, cutoff for positive-scoring molecules 3-fold increase, read-out: AK-based Prestwick Library Screening Results, P. aeruginosa (fold increase in extracellular AK activity)): 0.9
- fold induction at 50 µM (E. cloacae; planktonic, cutoff for positive-scoring molecules 3-fold increase, read-out: AK-based Prestwick Library Screening Results, E. cloacae (fold increase in extracellular AK activity)): 1.3
- fold induction at 50 µM (E. coli; planktonic, cutoff for positive-scoring molecules 3-fold increase, read-out: AK-based Prestwick Library Screening Results, E. coli (fold increase in extracellular AK activity)): 0.9

Compound: COc1ccc2c(c1OC)C(=O)O[C@@H]2[C@H]1c2cc3c(cc2CCN1C)OCO3 [Hydrastine hydrochloride]
- fold induction at 50 µM (E. faecium; planktonic E. faecium, […], read-out: AK-based Prestwick Library Screening Results, E. faecium (increase in extracellular AK activity)): 1
- fold induction at 50 µM ([1]; planktonic S. aureus, […], read-out: AK-based Prestwick Library Screening Results, S. aureus (increase in extracellular AK activity)): 0.6
- fold induction at 50 µM (K. pneumoniae; planktonic K. pneumoniae, […], read-out: AK-based Prestwick Library Screening Results, K. pneumoniae (increase in extracellular AK activity)): 0.8
- fold induction at 50 µM ([2]; planktonic A. baumannii, […], read-out: AK-based Prestwick Library Screening Results, A. baumannii (increase in extracellular AK activity)): 1
- fold induction at 50 µM (P. aeruginosa; planktonic P. aeruginosa, […], read-out: AK-based Prestwick Library Screening Results, P. aeruginosa (increase in extracellular AK activity)): 0.9
- fold induction at 50 µM (E. cloacae; planktonic E. cloacae, […], read-out: AK-based Prestwick Library Screening Results, E. cloacae (increase in extracellular AK activity)): 0.9
- fold induction at 50 µM (E. coli; planktonic E. coli, […], read-out: AK-based Prestwick Library Screening Results, E. coli (increase in extracellular AK activity)): 0.9

Compound: CCN(CC)CCOC(=O)c1ccc(N)cc1 [Procaine hydrochloride]
- fold induction at 50 µM (E. faecium; [10]): 0.9
- fold induction at 50 µM [1, 11]: 1.2
- fold induction at 50 µM (K. pneumoniae; [12]): 1
- fold induction at 50 µM [2, 13]: 1.1
- fold induction at 50 µM (P. aeruginosa; [14]): 1
- fold induction at 50 µM (E. cloacae; [15]): 1.4
- fold induction at 50 µM (E. coli; [16]): 1.2

Compound: Nc1c(Br)cc(Br)cc1CN[C@H]1CC[C@H](O)CC1 [Ambroxol hydrochloride]
- fold induction at 50 µM (E. faecium; planktonic E. faecium, cutoff for positive-scoring molecules 3-fold increase, read-out: AK-based Prestwick Library Screening Results, E. faecium (increase in extracellular AK activity)): 1
- fold induction at 50 µM ([1]; planktonic S. aureus, cutoff for positive-scoring molecules 3-fold increase, read-out: AK-based Prestwick Library Screening Results, S. aureus (increase in extracellular AK activity)): 1
- fold induction at 50 µM (K. pneumoniae; planktonic K. pneumoniae, cutoff for positive-scoring molecules 3-fold increase, read-out: AK-based Prestwick Library Screening Results, K. pneumoniae (increase in extracellular AK activity)): 1
- fold induction at 50 µM ([2]; planktonic A. baumannii, cutoff for positive-scoring molecules 3-fold increase, read-out: AK-based Prestwick Library Screening Results, A. baumannii (increase in extracellular AK activity)): 1.2
- fold induction at 50 µM (P. aeruginosa; planktonic P. aeruginosa, cutoff for positive-scoring molecules 3-fold increase, read-out: AK-based Prestwick Library Screening Results, P. aeruginosa (increase in extracellular AK activity)): 1.2
- fold induction at 50 µM (E. cloacae; planktonic E. cloacae, cutoff for positive-scoring molecules 3-fold increase, read-out: AK-based Prestwick Library Screening Results, E. cloacae (increase in extracellular AK activity)): 1.5
- fold induction at 50 µM (E. coli; planktonic E. coli, cutoff for positive-scoring molecules 3-fold increase, read-out: AK-based Prestwick Library Screening Results, E. coli (increase in extracellular AK activity)): 1

Compound: COc1ccccc1OCC(O)COC(N)=O (stereo not drawn) [Methocarbamol]
- fold induction at 50 µM (E. faecium; [10]): 0.9
- fold induction at 50 µM [1, 11]: 0.8
- fold induction at 50 µM (K. pneumoniae; [12]): 0.6
- fold induction at 50 µM [2, 13]: 0.9
- fold induction at 50 µM (P. aeruginosa; [14]): 0.9
- fold induction at 50 µM (E. cloacae; [15]): 1
- fold induction at 50 µM (E. coli; [16]): 0.9

Compound: CN(C)C(=O)C(CCN1CCC(O)(c2ccc(Cl)cc2)CC1)(c1ccccc1)c1ccccc1 [Loperamide hydrochloride]
- fold induction at 50 µM (E. faecium; planktonic E. faecium, 384-well, […], read-out: AK-based Prestwick Library Screening Results: E. faecium (increase in extracellular AK activity)): 0.9
- fold induction at 50 µM ([1]; planktonic S. aureus, 384-well, […], read-out: AK-based Prestwick Library Screening Results: S. aureus (increase in extracellular AK activity)): 1
- fold induction at 50 µM (K. pneumoniae; planktonic K. pneumoniae, 384-well, […], read-out: AK-based Prestwick Library Screening Results: K. pneumoniae (increase in extracellular AK activity)): 0.9
- fold induction at 50 µM ([2]; planktonic A. baumannii, 384-well, […], read-out: AK-based Prestwick Library Screening Results: A. baumannii (increase in extracellular AK activity)): 1.5
- fold induction at 50 µM (P. aeruginosa; planktonic P. aeruginosa, 384-well, […], read-out: AK-based Prestwick Library Screening Results: P. aeruginosa (increase in extracellular AK activity)): 1.2
- fold induction at 50 µM (E. cloacae; planktonic E. cloacae, 384-well, […], read-out: AK-based Prestwick Library Screening Results: E. cloacae (increase in extracellular AK activity)): 1.5
- fold induction at 50 µM (E. coli; planktonic E. coli, 384-well, […], read-out: AK-based Prestwick Library Screening Results: E. coli (increase in extracellular AK activity)): 1.4
